Measured values: US8022040B2, “Hydroxyapatite-binding peptides for bone growth and inhibition” (The Regents of the University of California, priority 2004, dated 2011)
Read-outs that look alike come from different tables or passages of the source. Positions of bridges follow the written chain, without caps; N, C: chain ends. No end group written: not given here.

Assays:
[1] = for HA nucleation templated by peptide deposited from cosolvent: 1.5 mg/ml in acetonitrile and water (1:1/v:v), dried on grid, soaked in mineral precursor solutions; for HA nucleation templated by peptide solution in 100% water: compared to peptides 1 and 2
Method: (CaCl2 (10 mM)+Na2HPO4 (5 mM)→Ca10(OH)2(PO4)6). The inset photographs show the X-ray diffraction patterns of the crystals at each timepoint.
In order to investigate the nucleation ability of these binding peptides, the major 12-mer linear binding peptide was synthesized by solid phase synthetic method and subjected to HA-mineralization on holey carbon film-coated TEM grids according to J. D. Hartgerink, E. Beniash, S. I. Stupp, Science, 294, 1684 (2001), which is hereby incorporated by reference.
In order to study kinetics of HA nucleation by this peptide suspension, time dependence nucleation was investigated by preparing parallel TEM samples where HA was nucleated for 30 min (FIG. 20, Panel C), 1 hr (FIG. 20, Panel D), and 2 hrs (FIG. 20, Panel E) by same concentration peptide suspension.

[2] = Flow cytometric measurement of fluorescence intensity of binding viruses on HA surfaces
Method: (§1) Single crystalline and polycrystalline HA were freshly etched to remove carbonated contaminates and incubated with 1×10^10 pfu of phage of W4a-4-14 (Single 14), W4a-4-15 (single 15), HA-4-3 (poly 3), wild type (wild) phages suspension for these assays.
(§2) As described in Example 1, 4 mg of single crystalline HA was freshly etched to remove carbonated contaminates and incubated with 1×10^10 pfu of phage of constrained W4a-4-14 (Single 14), W4a-4-15 (single 15), HA-4-3 (poly 3), wild type (wild) phages suspension. After washing off with TBST (0.5%) ten times, the bound phage was eluted using glycine-HCl […] and titered to count number of bound phage.
After 30 minutes incubation of 4 mg/ml of HA crystals with ˜10^10 pfu/ml of each phage, CLP7, CLP12, or the wild type phages, the HA crystals were washed ten times with Tris-buffered saline solution (pH 7.5) contained 0.5% Tween 20. The phage bound to HA surfaces was labeled by R-phycoerythrin-conjugated monoclonal pVIII antibody (Amersham Pharmacia Biotech, UK), and the fluorescence images were acquired (Nikon fluorescence microscope, Japan) and the fluorescence intensity was quantified by FACS Calibur flow cytometer (BD Biosciences, Calif.).

[3] = Phage titering assay counting phage eluted from HA; format: binding; details: FIG. 12 Panel B; comparing to the wild type viruses / the other three peptides; TBST (0.5%) wash, glycine-HCl elution
Method: as §1, §2

[4] = 1.5 mg/ml peptide, two hours mineralization, 5 mM Na2HPO4 + 10 mM CaCl2

## APYHPTIPASVH-GGGK-biotin [peptide 5]
[1]
  HA nucleation templated by peptide deposited from cosolvent: nucleation phenomena similar to those templated by HA binding peptides
  HA nucleation templated by peptide solution in 100% water: relatively bigger amorphous calcium phosphate aggregation

## Cys Asn Tyr Pro Thr Leu Lys Ser Cys (CNYPTLKSC; disulfide 1-9 (inferred); also: displayed on M13 phage) [single 14]
[2]; phage-displayed peptides single 14, single 15, poly 3 and wild type
  binding to HA surfaces, rank among viruses tested: bind best to HA surfaces among all viruses tested
[3]
  strength of HA binding relative to comparators: almost three times stronger

## NIYHPTPPQSVH-GGGK-biotin [control peptide 1]
[1]; [4]
  HA deposition templated by peptide (TEM/SAED): amorphous calcium phosphate deposition without any clear SAED patterns

## NPDHPDIPQDVH-GGGK-biotin [Control peptide 2]
[1]; [4]
  HA deposition templated by peptide (TEM/SAED): amorphous deposition of calcium phosphate without any clear diffraction patterns

## NPYAPTIPQSVA-GGGK-biotin [peptide 4]
[1]
  HA nucleation templated by peptide deposited from cosolvent: nucleation phenomena similar to those templated by HA binding peptides
  HA nucleation templated by peptide solution in 100% water: relatively bigger amorphous calcium phosphate aggregation

## NPYHPTIPQSVH [Single 15]
[2]; flow cytometry, FIG. 12 Panel A, phage-displayed peptide compared to wild type phage, 1×10^10 pfu
  improved binding affinity (fluorescence intensity of binding viruses on HA surfaces): around 50%

## NPYHPTIPQSVH-GGGK-biotin [peptide 3]
[1]
  HA nucleation templated by peptide deposited from cosolvent: nucleation phenomena similar to those templated by HA binding peptides
  HA nucleation templated by peptide solution in 100% water: reduced HA-nucleation ability with different morphology of HA crystals

## NPYHPTIPQSVH-GGGK-biotin [single 15-biotin]
[1]; [4]
  HA deposition templated by peptide (TEM/SAED): well crystallized HA deposition
[1]; 15 mg/ml peptide, two hours, same amount of CaCl2 and Na2HPO4
  HA deposition templated by peptide (TEM/SAED): well-crystallized HA crystals
[1]; 30 min
  HA nucleation, time dependence (TEM/SAED): amorphous deposition of calcium phosphate
[1]; after 2 hours
  HA nucleation, time dependence (TEM/SAED): fully developed HA crystals were nucleated
